Series [1] relates to PBMCs isolated from COVID-19 patient samples. Kind of series: "Red ring" contaminating RBC layer in PBMC preparation. The conditions noted are these: 1 micromolar, room temperature, 17 hours. It is filed as cell-based, human. The text has this:
One of the observations made during the preparation of peripheral blood mononuclear cells (PBMC) for some of the experiments described herein was the presence of a contaminating red blood cell (RBC) layer in the PBMC layer, which was referred to as a “red ring”. This “red ring” was present in all COVID-19 patient samples, with no difference between critically ill patients and those who were only on supportive care outside the ICU setting (see FIG. 12A).
When PBMCs isolated from COVID-19 patient samples were incubated with Emricasan (1 micromolar) at room temperature for 17 hours, a decrease in the “red ring” was observed.

The target in a further series is T1, Caspase 1 (Homo sapiens, UniProt P29466).
T1 sequence (P29466 120-297 limits assumed): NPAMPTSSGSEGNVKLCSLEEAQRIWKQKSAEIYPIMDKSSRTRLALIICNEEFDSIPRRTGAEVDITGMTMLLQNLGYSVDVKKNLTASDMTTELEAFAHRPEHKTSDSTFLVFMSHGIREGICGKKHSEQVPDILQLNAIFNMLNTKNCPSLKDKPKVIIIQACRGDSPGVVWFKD
T1 sequence (P29466 317-404 limits assumed): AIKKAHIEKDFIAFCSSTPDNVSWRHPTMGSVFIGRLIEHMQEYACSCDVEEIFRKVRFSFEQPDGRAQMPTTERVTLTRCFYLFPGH
As to the kind of experiment: FLICA flow cytometry of active caspase-1 in PBMCs from Emricasan-treated COVID-19(+) whole blood (Example 7). It is filed as cell-based. The note with it: 1 μM, 17 hours (overnight) at room temperature on a rocker; 3 samples from COVID-19 patients. For orientation: A flow cytometer gives signals particle by particle.

Another series deals with caspase-1 (Homo sapiens, UniProt P29466). As to the kind of experiment: Ex vivo stimulation study: active caspase-1 in CD4 T cells after whole blood incubation with caspase inhibitors (Example 9). It is filed as cell-based. The conditions noted are these: whole blood incubated with inhibitor, 24 hrs later with or without nigericin stimulation.
The target of a further series is T2, caspase-3 (Homo sapiens, UniProt P42574).
T2 construct: EMR suppressed the caspase-3 up-regulation in the COVID-19 plasma incubated samples; endogenous in cells; host or cells: red blood cells of healthy subjects incubated with patient plasma
T2 sequence (P42574 29-277): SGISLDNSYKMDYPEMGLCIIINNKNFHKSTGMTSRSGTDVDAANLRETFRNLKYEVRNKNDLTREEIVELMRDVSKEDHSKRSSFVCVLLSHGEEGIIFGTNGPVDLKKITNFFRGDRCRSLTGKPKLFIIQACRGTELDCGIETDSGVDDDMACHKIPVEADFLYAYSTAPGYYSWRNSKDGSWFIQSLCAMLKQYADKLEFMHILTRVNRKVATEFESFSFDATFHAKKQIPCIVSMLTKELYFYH
Kind of series: Caspase-3 in red blood cells incubated with patient plasma. It is filed as cell-based.

For a further series, the system named is mild COVID-19. Kind of series: Phase 1 double-blinded placebo-controlled safety and tolerability study in mild-COVID-19 outpatients. It is filed as in vivo, human. The protocol: A double-blinded, placebo-controlled randomized safety and tolerability study (1:1 active:placebo) was performed in a number symptomatic outpatient mild-COVID-19 patients receiving standard of care therapy. A total of 13 patients were enrolled at a single site in New York City. Treatment involved administering Emricasan (EMR) (or placebo) at 25 mg BID dosing for 14 days, with follow-up for an additional month. […] This study was thus designed to evaluate safety and tolerability, with the primary endpoint being the difference, if any, between treatment-related adverse events (AEs), including severe adverse events (SAEs), if any, in the active (EMR) and placebo groups through day 14. The pharmacokinetics (PK) of EMR has been extensively studied in earlier clinical trials. Accordingly, patients in this Phase 1 study were sampled at the end of the study to confirm that Emricasan pharmacokinetics was not altered in COVID-19 patients. Secondary endpoints included various clinical and laboratory measures and patient reported outcomes (PROs) using a COVID-19-related assessment tool.

The conditions of series [2]: in vivo; cited from earlier work.

Regarding `C[C@H](NC(=O)C(=O)Nc1ccccc1C(C)(C)C)C(=O)N[C@@H](CC(=O)O)C(=O)COc1c(F)c(F)cc(F)c1F` [Emricasan, (3S)-3-{[(2S)-2-{[2-(2-tert-butylanilino)-2-oxoacetyl]amino}propanoyl]amino}-4-oxo-5-(2,3,5,6-tetrafluorophenoxy)pentanoic acid], in series [1], the “"red ring" (contaminating RBC layer)” value is on record as “decrease”. Further, the “samples with inhibition of nigericin-induced Caspase-1 activity” value at Caspase 1 was “⅓”. Also, at caspase-1, the “T-helper cell caspase-1 expression in COVID-19 samples” value is “suppressed” and the “T-helper cell caspase-1 upregulation in healthy subjects” value is “prevented its upregulation”. On caspase-3 (COVID-19 plasma incubated samples), the “caspase-3 up-regulation in RBCs” value is “suppressed”. The “baseline caspase-3 expression levels in RBCs” value at caspase-3 (influenza-plasma incubated samples) was “did not change”. Also, in the series with mild COVID-19 (25 mg BID for 14 days), the serious adverse events result is “no reports of serious adverse events”. The safety and tolerability result in the series on mild COVID-19 (25 mg BID for 14 days, 2 weeks of dosing and week 10 follow up, compared to placebo) was “safe and well tolerated”. For the same compound, the “resolution of symptoms most commonly associated with mild COVID-19 (cough, headache, fatigue)” value in the series on mild COVID-19 (25 mg BID for 14 days, at day 7, continued through Day 45, patients who completed treatment) is given as “complete resolution”. The caspase biomarkers entry in the series on mild COVID-19 (all subjects in the EMR treatment group) is given as “decreases”. Moreover, the “safety and tolerance profile in humans” value in series [2] is “excellent safety and tolerance profile”.
In the case of `CCO[C@@H]1OC(=O)C[C@@H]1NC(=O)[C@@H]1CCCN1C(=O)[C@@H](NC(=O)c1ccc(N)c(Cl)c1)C(C)(C)C` [VX765], at caspase-1, the “T-helper cell caspase-1 expression in COVID-19 samples” value was “did not show a strong similar suppressive effect”.

These data come from patent publication US20230042509A1, “TREATMENT FOR DISEASES CAUSED BY RNA VIRUSES” (Amerimmune LLC, priority 2021, published 2023).
